Experimental data published in patent publication US20160280731A1, “CRYSTALLINE FORMS B, C, and D OF CANAGLIFLOZIN” (CRYSTAL PHARMATECH CO., LTD, priority 2013, published 2016).
In brackets after ≈: the same amount, converted by molar mass.

Columns and labels:
[1] = Kinetic solubility in FeSSIF and FaSSIF; assay type: physicochemical; details: for Solubility in comparison to the hemihydrate form (WO2008069327A1): FeSSIF and FaSSIF, 1 h, 4 h, 24 h; for Solubility in comparison to the hemihydrate form (WO2008069327A1) / solubility at 1 h / solubility at 4 h / solubility at 24 h: RT; for solubility at 1 h / solubility at 4 h / solubility at 24 h: thermodynamic from solid
Method: Kinetic solubility of canagliflozin in crystalline Form B and its hemihydrate form in fed state simulated intestinal fluid (FeSSIF) and fasted state simulated intestinal fluid (FaSSIF) were measured using the following procedures:
1. Weighed approximately 30 mg of compound into a tared 4 mL plastic vial and recorded the actual weight of the compound.
2. Added 3 mL of water or bio-relevant medium into each vial.
3. Covered the vials with caps and kept all the suspension samples stirring at RT using a rolling incubator with a speed of 25 r/min.
4. Sampled at 1 h, 4 h and 24 h respectively.
5. Centrifuged the filtration tubes in a speed of 8500 rpm for 3 minutes at RT, collected 0.2 mL supernatant for HPLC quantification determination and the rest of solution for pH measurement, and separated the solid for XRPD characterization.
Kinetic solubility of canagliflozin Form C and hemihydrate in fed state simulated intestinal fluid (FeSSIF) and fasted state simulated intestinal fluid (FaSSIF) were measured using the following procedures:
5. Centrifuged filtration tubes in a speed of 8500 rpm for 3 minutes at RT, collected 0.2 mL supernatant for HPLC quantification determination and the rest of solution for pH measurement, and separated the solid for XRPD characterization.

[2] = Stability assessment of Form B under stress conditions (XRPD after storage); assay type: physicochemical; details: 30 days; for Final form: dish open, XRPD
Method: Two samples of canagliflozin Form B were stored under 25° C./60% RH and 40° C./75% RH, respectively, with dish open for 30 days. The solid samples were analyzed by XRPD.

Structure (SMILES)	Solubility at RT ([1]; FaSSIF, time point 1 h) [mg/mL]	Solubility at RT ([1]; FaSSIF, time point 4 h) [mg/mL]	Solubility at RT ([1]; FaSSIF, time point 24 h) [mg/mL]	Solubility at RT ([1]; FeSSIF, time point 1 h) [mg/mL]	Solubility at RT ([1]; FeSSIF, time point 4 h) [mg/mL]	Solubility at RT ([1]; FeSSIF, time point 24 h) [mg/mL]	Solubility in comparison to the hemihydrate form (WO2008069327A1) [1]	Stability under the stress conditions ([2]; 25° C./60% RH and 40° C./75% RH)	Final form ([2]; stored under 25° C./60% RH)	Final form ([2]; stored under 40° C./75% RH)	solubility at 1 h ([1]; fasted state simulated intestinal fluid (FaSSIF), fassif, time point 1 h) [µg/mL]	solubility at 4 h ([1]; fasted state simulated intestinal fluid (FaSSIF), fassif, time point 4 h) [µg/mL]	solubility at 24 h ([1]; fasted state simulated intestinal fluid (FaSSIF), fassif, time point 24 h) [µg/mL]	solubility at 1 h ([1]; fed state simulated intestinal fluid (FeSSIF), fessif, time point 1 h) [µg/mL]	solubility at 4 h ([1]; fed state simulated intestinal fluid (FeSSIF), fessif, time point 4 h) [µg/mL]	solubility at 24 h ([1]; fed state simulated intestinal fluid (FeSSIF), fessif, time point 24 h) [µg/mL]
Cc1ccc([C@@H]2O[C@H](CO)[C@@H](O)[C@H](O)[C@H]2O)cc1Cc1ccc(-c2ccc(F)cc2)s1 [WO2008069327A1 hemihydrate, (2S,3R,4R,5S,6R)-2-{3-[5-[4-fluoro-phenyl)-thiophen-2-ylmethyl]-4-methyl-phenyl -}-6-hydroxymethyl-tetrahydro-pyran-3,4,5-triol, reference compound]	0.36	0.37	0.37	3.34	3.50	3.70										
Cc1ccc([C@@H]2O[C@H](CO)[C@@H](O)[C@H](O)[C@H]2O)cc1Cc1ccc(-c2ccc(F)cc2)s1 [Form C, (2S,3R,4R,5S,6R)-2-{3-[5-[4-fluoro-phenyl)-thiophen-2-ylmethyl]-4-methyl-phenyl -}-6-hydroxymethyl-tetrahydro-pyran-3,4,5-triol]	0.41 (≈ 0.922 mM)	0.44 (≈ 0.99 mM)	0.42 (≈ 0.945 mM)	4.60 (≈ 10.3 mM)	4.70 (≈ 10.6 mM)	4.50 (≈ 10.1 mM)	higher solubility									
Cc1ccc([C@@H]2O[C@H](CO)[C@@H](O)[C@H](O)[C@H]2O)cc1Cc1ccc(-c2ccc(F)cc2)s1 [Form B, (2S,3R,4R,5S,6R)-2-{3-[5-[4-fluoro-phenyl)-thiophen-2-ylmethyl]-4-methyl-phenyl -}-6-hydroxymethyl-tetrahydro-pyran-3,4,5-triol]							higher solubility	stable	Form B	Form B	500 (≈ 1.12 mM)	510 (≈ 1.15 mM)	480 (≈ 1.08 mM)	4720 (≈ 10.6 mM)	4760 (≈ 10.7 mM)	4350 (≈ 9.79 mM)
